According to patent US10485815B2, “Substituted nucleosides, nucleotides and analogs thereof” (Alios BioPharma, Inc., priority 2012, dated 2019):

Assays:
RSV A2 (ATCC: VR-1540) = test: RSV RT-PCR based assay in HEp-2 cells; format: cell-based; details: human respiratory syncytial virus, 96 h; RT-PCR assay, HEp-2 cells, RSV A2 MOI 0.1, 4 days after infection; read-out: EC50
[1] = test system: Influenza strain A/WSN/33 (H1N1); test: microbe, parasite or virus in culture; format: cell-based; details: A549, 20 h, read-out: % Inhibition
[2] = test system: human parainfluenza virus 3 (hPIV3, ATCC: VR-93); test: Parainfluenza virus-3 (PIV-3) RT-PCR assay in A549 cells; format: cell-based; details: Human respirovirus 3, 168 h, hPIV3 MOI 0.1, 7 days after infection
hPIV3-eGFP = test: microbe, parasite or virus in culture; format: cell-based, human parainfluenza virus 3; details: Human respirovirus 3, A549, 72 h
human PIV type 3 = test: Parainfluenza virus-3 (PIV-3) plaque assay in MA-104 cells; format: cell-based; details: MA104, 72 hours infection
Procedure: MA-104 cells were grown in 24-well plates to a confluency of 90% in the presence of minimal essential medium (MEM) supplemented with 10% fetal bovine serum and antibiotics (C-EMEM). The cells were then washed twice with non-complete minimal essential medium (NC-EMEM). Test articles were dissolved in DMSO to a stock concentration of 10 mM. An aliquot of 0.5 mL of the test article at various concentrations was then inoculated in triplicate wells and incubated for 60 minutes at 37° C. with 5% CO2 for the diffusion of test article into MA-104 cells. […] An aliquot of 0.1 mL was then inoculated into all the wells except for the negative and test article toxicity control wells. Upon infection, the plates were incubated for 72 hours at 37° C. at 5% CO2. After incubation, the plates were examined under microscopy to record cytotoxicity. The supernatants collected for viral quantification using a standard plaque assay using MA-104 cells as the indicator cells. To perform the plaques assay, MA-104 cells were grown to confluence in 24-well plates. The cells were washed with serum-free medium prior to inoculation of duplicate wells with serial 10-fold dilutions of supernatant sample. After 1 hour incubation at 37° C., the samples were aspirated and 1.0 mL of methyl cellulose overlay media was added to each well. […]

human metapneumovirus = test: Human metapneumovirus (hMPV) TCID50 assay in LLC-MK2 cells; format: cell-based; details: 168 h, 7 days infection
Procedure: LLC-MK2 cells were grown in 24-well plates to a confluency of 90% in the presence of minimal essential medium (MEM) supplemented with 10% fetal bovine serum and antibiotics (C-EMEM). The cells were then washed twice with non-complete minimal essential medium (NC-EMEM). Test articles were dissolved in DMSO to a stock concentration of 10 mM. An aliquot of 0.5 mL of the test article at various concentrations was then inoculated in triplicate wells and incubated for 60 minutes at 37° C. with 5% CO2 for the diffusion of test article into LLC-MK2 cells. […] An aliquot of 0.1 mL was then inoculated into all the wells except for the negative and test article toxicity control wells. Upon infection, the plates were incubated for 7 days at 37° C. at 5% CO2. After incubation, the plates were examined under microscopy to record cytotoxicity. The supernatants collected for viral quantification using a standard TCID50 assay using LLC-MK2 cells as the indicator cells. The data was analyzed with Prism software with EC50 defined as drug concentration that reduced the viral load 50% from the viral control (VC).

SMILES | EC50 (RSV A2 (ATCC: VR-1540)) [µM] | EC50 [1] [µM] | EC50 [2] [µM] | EC50 (hPIV3-eGFP) [µM] | EC50 (human PIV type 3) [µM] | EC50 (human metapneumovirus) [µM]
Nc1ccn([C@@H]2O[C@@](CO)(CCl)[C@@H](O)[C@H]2F)c(=O)n1 [Compound 7a] | < 1 | 100 to 250 | < 20 | < 20 | < 20 | < 20
CC[C@]1(CO)O[C@@H](n2ccc(N)nc2=O)[C@H](F)[C@@H]1O [Compound 3a] | < 1 | 100 to 250 | < 20 | < 20 | < 20 | < 20
